Test results published in PMC12865225 (Clinical and Translational Science, 2026).
“And” between values parts separate entries of the source, which are not always exact repeats. Equal values may be shown once. Marks after values point to notes of the source that are not given here.

Key:
OAT4 [1] = target: T1, OAT4 (Homo sapiens, UniProt Q9NSA0); assay: OAT4 inhibition, methotrexate uptake into HEK293 cells; assay type: cell-based; settings: for Calculated R-value OAT4: R = I max,u/IC50, cut-off ≥ 0.02 (MATE threshold)
T1 construct: expressed in transfected cells; host or cells: HEK293 (recombinant baculovirus-mediated transduction)
T1 sequence (Q9NSA0 1-550): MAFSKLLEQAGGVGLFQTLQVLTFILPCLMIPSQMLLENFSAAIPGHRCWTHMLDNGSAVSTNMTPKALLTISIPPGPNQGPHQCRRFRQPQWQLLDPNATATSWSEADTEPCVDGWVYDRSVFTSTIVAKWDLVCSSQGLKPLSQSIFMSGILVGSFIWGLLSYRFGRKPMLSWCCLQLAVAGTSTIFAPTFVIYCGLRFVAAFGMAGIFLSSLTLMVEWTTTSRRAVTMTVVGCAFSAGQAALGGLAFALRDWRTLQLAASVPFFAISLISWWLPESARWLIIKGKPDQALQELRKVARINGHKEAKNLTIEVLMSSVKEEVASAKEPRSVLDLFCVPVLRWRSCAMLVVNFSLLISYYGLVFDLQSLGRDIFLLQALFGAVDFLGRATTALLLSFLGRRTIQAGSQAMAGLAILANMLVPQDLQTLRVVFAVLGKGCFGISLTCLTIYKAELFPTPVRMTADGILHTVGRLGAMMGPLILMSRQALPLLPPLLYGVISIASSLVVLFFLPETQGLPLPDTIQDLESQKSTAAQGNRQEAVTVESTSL
Procedure: (§1) The human transporters OATP1B1, OATP1B3, OATP2B1, and OAT1‐OAT4 and a negative control protein (enhanced yellow fluorescent protein, eYFP) were transiently expressed in human embryonic kidney 293 (HEK293) cells by recombinant baculovirus‐mediated transduction. Baculoviruses carrying human genes for the transporters were prepared as reported previously. HEK293 cells were cultured in DMEM containing 10% fetal bovine serum at 37°C and 5% CO2 and passaged two to three times per week. For the transport studies, 0.05 × 10^6 cells for 48‐well plates (OATPs) or 0.06 × 10^6 cells for 24‐well plates (OATs) were seeded onto cell‐culture treated well plates coated with poly‐D‐lysine. After 1 day, cells were transduced to produce recombinant proteins by changing media to DMEM containing 30 μL (48‐well plates) or 60 μL (24‐well plates) of recombinant baculovirus and 3 mM (OATs) or 5 mM (OATPs) sodium butyrate in a total media volume of 500 μL. The cells were cultured for a further 2 days before the transport assays.
For the transport studies, media were removed and cells were washed once with warm transport uptake buffer (TP‐buffer—pH 7.4 HBSS with 25 mM HEPES and 4 mM sodium bicarbonate). Each experiment included triplicate (OATP) or duplicate (OAT) samples for every test condition. […]
(§2) In the OATP inhibition assays, inhibitors in warm TP‐buffer were directly applied to cells after media removal, followed by a 30‐min preincubation step in the presence of inhibitors. […] OAT1 and OAT3 cells were lysed with 200 μL of 1 M sodium hydroxide for 10 min, and 150 μL of these samples were transferred to a black well plate for fluorescein quantification. […]
(§3) For the inhibition data analysis, the average of measured concentrations in the control cells was subtracted from the average of measured concentrations in transporter‐expressing cells for each inhibitor concentration and then normalized to the vehicle sample that represents 100% transport activity. […]

OAT4 [2] = target: T1, OAT4; assay: Uptake transport assay in OAT4-expressing HEK293 cells; assay type: cell-based; settings: for transport by OAT4: 2 and 50 μM, 10 min; for Vmax (pmol/106 cells/min) OAT4: uptake, 2 min
Procedure: as §1
For the transport studies, media were removed and cells were washed once with warm transport uptake buffer (TP‐buffer—pH 7.4 HBSS with 25 mM HEPES and 4 mM sodium bicarbonate). Each experiment included triplicate (OATP) or duplicate (OAT) samples for every test condition. The uptake was started by removing liquid from wells and applying warm TP‐buffer (200 μL for 24‐well plates or 125 μL for 48‐well plates) containing a test compound to cells. Transport assays were terminated after a pre‐specified incubation time (reported in figure legends) by removing substrate solution and washing cells three times with cold TP‐buffer (300 μL for 48‐well plates and 400 μL for 24‐well plates). For the liquid chromatography mass spectrometry (LC–MS) analysis, compounds were extracted from cells with 125 μL (48‐well plates) or 250 μL (24‐well plates) of an ultrapure‐water solution containing 75% methanol and 0.1% formic acid, shaking at 250 RPM for 30 min. […] Samples were transferred to well plates, centrifuged at 3000 g for 30 min, and transferred to a new well plate for the analysis.
Equation (2) (the Michaelis–Menten equation) was fit to the transport kinetic assay data. […] (2) Uptake=Vmax×S/Km+S

OAT3 = target: T2, OAT3 (Homo sapiens, UniProt Q8TCC7); assay: OAT3 inhibition, fluorescein uptake into HEK293 cells; assay type: cell-based; set-up: expressed in transfected cells; host or cells: HEK293 (recombinant baculovirus-mediated transduction); settings: R = I max,u/IC50, FDA cut-off ≥ 0.1
T2 sequence (Q8TCC7 1-542): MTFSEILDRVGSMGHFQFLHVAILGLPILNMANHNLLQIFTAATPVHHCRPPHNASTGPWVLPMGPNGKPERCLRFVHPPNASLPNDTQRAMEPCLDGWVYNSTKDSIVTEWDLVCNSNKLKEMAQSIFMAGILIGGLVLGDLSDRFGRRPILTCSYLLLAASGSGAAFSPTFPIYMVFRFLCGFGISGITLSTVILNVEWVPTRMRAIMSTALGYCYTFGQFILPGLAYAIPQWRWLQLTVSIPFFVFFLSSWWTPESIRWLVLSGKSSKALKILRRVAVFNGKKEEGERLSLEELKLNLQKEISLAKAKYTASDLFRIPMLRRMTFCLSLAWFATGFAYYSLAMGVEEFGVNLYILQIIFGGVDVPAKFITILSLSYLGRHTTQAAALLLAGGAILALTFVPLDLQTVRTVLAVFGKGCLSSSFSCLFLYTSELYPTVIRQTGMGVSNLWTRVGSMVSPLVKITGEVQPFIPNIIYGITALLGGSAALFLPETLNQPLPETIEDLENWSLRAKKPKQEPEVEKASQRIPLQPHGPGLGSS
Procedure: as §1, with “After 1 day, cells were transduced to produce recombinant proteins by changing media to DMEM containing 30 μL (48‐well plates) or 60 μL (24‐well plates) of recombinant baculovirus and 3 mM (OATs) or 5 mM (OATPs) sodium butyrate in a total media volume of 500 μL. The cells were cultured for a further 2 days before the transport assays.” left out
as §2, §3

[3] = cited from earlier work; for Cmax: 1000 mg dose, read-out: total C max; for unbound fraction in plasma: static model input

| SMILES | IC50 (OAT4 [1]; IC50 (95% CI), μM OAT4, 34 nM methotrexate, 10 min, no preincubation) | Calculated R-value OAT4 (OAT4 [1]) | transport by OAT4 (OAT4 [2]) | Vmax (pmol/106 cells/min) OAT4 (OAT4 [2]) [pmol/106 cells/min] | Calculated R-value OAT3 (OAT3) | Cmax [3] [µM] | unbound fraction in plasma [3] |
| --- | --- | --- | --- | --- | --- | --- | --- |
| Cc1onc(-c2c(Cl)cccc2Cl)c1C(=O)N[C@@H]1C(=O)N2[C@@H]1SC(C)(C)[C@@H]2C(=O)O [Dicloxacillin] | 7.2 µM and 7.23 µM | 0.19 ^d | transported | 239 | 0.07 ^c | 67 | 0.02 |
| Cc1onc(-c2c(F)cccc2Cl)c1C(=O)N[C@@H]1C(=O)N2[C@@H]1SC(C)(C)[C@@H]2C(=O)O [Flucloxacillin] | – | 0.08 ^d | transported | 245 | 0.1 ^c | 46 | 0.06 |
